From patent US6713251B2, “Method for detection of drug-induced mutations in the reverse transcriptase gene” (Innogenetics N.V., priority 1996, dated 2004)

Tests used:
CD4 cells = assay: Follow-up of CD4 cell count in treated HIV-1 infected patients; type: in vivo, human
Method: (§1) Plasma samples were taken from HIV type-1 infected patients and stored at −20° C. until use. Patients were treated with AZT, ddI, ddC, D4T, 3TC, or several combinations of these prodrugs. The European serum samples tested were randomly selected. For the US serum collection, only the first sample from a follow-up series was taken. Some of these US patients were treated, others were not treated.
We selected follow-up samples from three patients and analyzed the viral genotype on the 48 LiPA probes. FIG. 3 illustrates the applicability of genotypic resistance measurement in conjunction with the analysis of viral load and CD4 cell count.

HIV-1 = assay: Follow-up of plasma HIV RNA copy number (viral load, HIV Monitor test) in treated patients; type: in vivo, human
Method: as §1
For cDNA synthesis and PCR amplification, the RNA pellet was dissolved in 15 μl random primers (20 ng/μl, pdN6, Pharmacia), prepared in DEPC-treated or HPLC grade water. After denaturation at 70° C. for 10 minutes, 5 μl cDNA mix was added, composed of 4 μl 5×AMV-RT buffer (250 mM Tris.HCl pH 8.5, 100 mM KCl, 30 mM MgCl2, 25 mM DTT), 0.4 μL 25 mM dXTPs, 0.2 μl or 25U Ribonuclease Inhibitor (HPRI, Amersham), and 0.3 μl or 8U AMV-RT (Stratagene). CDNA synthesis occurred during the 90 minutes incubation at 42° C. The HIV RT gene was then amplified using the following reaction mixture. […] Nested round PCR products were analysed on agarose gel and only clearly visible amplification products were used in the LiPA procedure. Quantification of viral RNA was obtained with the HIV Monitor™test (Roche, Brussels, Belgium).
We selected follow-up samples from three patients and analyzed the viral genotype on the 48 LiPA probes. […]

| Compound | CD4 count increase (CD4 cells; Patient 94013, 3TC monotherapy from week 2 onwards, highest level at week 10) [fold] | Viral load decrease (HIV-1; Patient 94013, 3TC monotherapy from week 2 onwards) [log units] | Change in CD4 count (CD4 cells; Patient 92021, AZT monotherapy from week 10, peak at week 21) | Effect on viral load (HIV-1; Patient 92021, ten weeks of AZT treatment (from week 10), values of week 16 and 19) |
| --- | --- | --- | --- | --- |
| Nc1ccn([C@@H]2CS[C@H](CO)O2)c(=O)n1 [3TC, (−)-β-L-2′,3′-dideoxy-3′-thioCytidine] | ~2.5 | 3 | – | – |
| Cc1cn([C@H]2C[C@H](N=[N+]=[N-])[C@@H](CO)O2)c(=O)[nH]c1=O [AZT, 3′-azido-2′,3′-dideoxyThymidine] | – | – | initially increased | did not result in a drop in viral load |
